pEC50: −log10 of the molar value. Like-named read-outs stand apart in the source and are kept apart here. Bounds are passed on as bounds.

Common to all, as to test: microbe, parasite or virus in culture
Common to all, as to assay type: cell-based, HIV-1

Experiment [1] deals with NLRepRlucP373S recombinant wild type (WT) virus. As to the method: (§1) Cells. MT-2 cells and 293T cells were obtained from the NIH AIDS Research and Reference Reagent Program. Cell lines were sub-cultured twice a week in either RPMI 1640 (MT-2) or DMEM (293T, HeLa) media supplemented with 10% heat inactivated fetal bovine serum (FBS), 100 units/mL of penicillin G and 100 μg/mL of streptomycin. The DMEM medium was additionally supplemented with 10 mM HEPES buffer, pH 7.55, 2 mM L-glutamine and 0.25 μg/mL of amphotericin B.
(§2) Viruses. NLRepRluc virus contains the Renilla luciferase marker in place of the viral nef gene. The proviral plasmid pNLRepRluc was constructed at Bristol-Myers Squibb, starting from a proviral NL4-3 clone (B subtype) that was obtained from the NIH AIDS Research and Reference Reagent Program. The parental recombinant wild type (WT) virus (NLRepRlucP373S) was derived from NLRepRluc and contains the additional substitution of P373 for serine in Gag (within the SP1 spacer), the most common 373 variation in subtype B. Other recombinant viruses (A364V, V370A/ΔT371 and the “T3325 triple” (T332S/V362I+HIV-1 protease R41G)) were generated by site-directed mutagenesis of plasmid pNLRepRlucP373S to introduce those amino acid substitutions in Gag and protease. Recombinant virus DNA was then used to generate virus stocks by transfection of 293T cells (Lipofectamine PLUS kit, Invitrogen). Titers of virus stocks were determined using a luciferase assay (Dual-Luciferase® Reporter Assay System, Promega, Milwaukee, Wis., USA) endpoint.
(§3) Multiple cycle drug susceptibility assay. Pellets of MT-2 cells were infected with NLRepRlucP373S Gag site-directed viruses, where initial inocula of the reporter strains were normalized using equivalent endpoint luciferase activity signals. Such cell-virus mixtures were resuspended in medium, incubated for 1-hour at 37° C./CO2, and added to compound containing 96-well plates at a final cell density of 10,000 cells per well. The test compounds were 3-fold serially diluted in 100% DMSO, and assayed at a final DMSO concentration of 1%. After 4-5 day incubation at 37° C./CO2, virus yields were determined by Renilla luciferase activity (Dual-Luciferase® Reporter Assay System, Promega). The endpoint luminescence was detected on a Wallac Trilux (PerkinElmer).
The 50% inhibitory concentrations (EC50S) were calculated by using the exponential form of the median effect equation where Percent Inhibition=1/[1+(EC50/drug conc.^m], where m is a parameter that reflects the slope of the concentration-response curve. Background was taken as the residual signal observed upon inhibition at the highest concentration of a control protease inhibitor, NFV (3 μM).
The 90% inhibitory concentrations (EC90S) were calculated by using the exponential form of the median effect equation where ECF=[(F/(100−F)]^1/H·EC50, where H is a parameter that reflects the slope of the concentration-response curve. Background was taken as the residual signal observed upon inhibition at the highest concentration of a control protease inhibitor, NFV (3 μM).

The subject of a further experiment is gag V370A/ΔT371 virus. Particulars: for pEC50: Human immunodeficiency virus 1, MT2, read-out: V370A/ΔT371 EC50; for EC90: Human immunodeficiency virus 1, read-out: V370A/ΔT371 EC90. Here is the method: as §1, §2, §3
(§4) HIV-1 NL4-3 expressing Renilla luciferase gene was converted to the gag V370A/ΔT371 virus by site directed mutagenesis. A364V is a site directed mutant.
(§5) All three recombinant viruses were used as described above in the HIV cell culture assay for the NL4-3 virus.

For experiment [2], the system named is A364V site directed mutant virus. The conditions noted are these: for pEC50: Human immunodeficiency virus 1, MT2, read-out: A364V EC50; for EC90: Human immunodeficiency virus 1, read-out: A364V EC90. Here is the method: as §1, §2, §3, §4, §5
The test system of experiment [3] is T332S/V362I/Pr R41G virus. Particulars: for pEC50: Human immunodeficiency virus 1, MT2, read-out: T332S/V362I/pr41G EC50; for EC90: Human immunodeficiency virus 1, read-out: T332S/V362I/prR41G EC90. As to the method:
as §1, §2, §3
T332sN362I/Pr R41G (N14.3, B Clade) virus′ was obtained as follows: Selection for resistance of HIV-1 strain […] virus with the HIV maturation inhibitor (MI) compound
At passage 8 virus was harvested and sequenced.
as §5

Where [4] appears, read: Human immunodeficiency virus 1, MT2, read-out: WT EC50.
Where [5] appears, read: Human immunodeficiency virus 1, read-out: WT EC50.

Turning to `C=C(C)[C@@H]1CC[C@]2(NCC[C@]3(O)CC[C@@H](S(C)(=O)=O)CC3)CC[C@]3(C)[C@H](CC[C@@H]4[C@@]5(C)CC=C(C6=CC[C@@](COc7ncccc7C#N)(C(=O)O)CC6)C(C)(C)[C@@H]5CC[C@]43C)[C@@H]12` [Example A3, (S)-1-(((3-cyanopyridin-2-yl)oxy)methyl)-4-((1R,3aS,5aR,5bR,7aR,11aS,11bR,13aR,13bR)-3a-((2-((1s,4R)-1-hydroxy-4-(methylsulfonyl)cyclohexyl)ethyl)amino)-5a,5b,8,8,11a-pentamethyl-1-(prop-1-en-2-yl)-2,3,3a,4,5,5a,5b,6,7,7a,8,11,11a,11b,12,13,13a,13b-octadecahydro-1H-cyclopenta[a]chrysen-9-yl)cyclohex-3-enecarboxylic acid], the pEC50 in experiment [1] (setting [4]) is 8.40; in experiment [1] (setting [5]) it was 8.40; in the experiment on gag V370A/ΔT371 virus, 8.30; in experiment [2] it was 7.96; in experiment [3] it was 8.30. For the same compound, the figures for the EC90 (with gag V370A/ΔT371 virus; in experiment [2]; in experiment [3]) were 15 nM, 166 nM and 17 nM, respectively.
As to `C=C(C)[C@@H]1CC[C@]2(NCCN3CCS(=O)(=O)CC3)CC[C@]3(C)[C@H](CC[C@@H]4[C@@]5(C)CC=C(C6=CCC(COc7cc(C)sn7)(C(=O)O)CC6)C(C)(C)[C@@H]5CC[C@]43C)[C@@H]12` (stereo partly shown) [Example 12], the pEC50 (in experiment [1] (setting [4]); in the experiment on gag V370A/ΔT371 virus; in experiment [2]; in experiment [3]) was more than 7.30 in each case.
Regarding `C=C(C)[C@@H]1CC[C@]2(NCCN3CCS(=O)(=O)CC3)CC[C@]3(C)[C@H](CC[C@@H]4[C@@]5(C)CC=C(C6=CC[C@](COc7ncccc7C(N)=O)(C(=O)O)CC6)C(C)(C)[C@@H]5CC[C@]43C)[C@@H]12` [Example 24, (R)-1-(((3-carbamoylpyridin-2-yl)oxy)methyl)-4-((1R,3aS,5aR,5bR,7aR,11aS,11bR,13aR,13bR)-3a-((2-(1,1-dioxidothiomorpholino)ethyl)amino)-5a,5b,8,8,11a-pentamethyl-1-(prop-1-en-2-yl)-2,3,3a,4,5,5a,5b,6,7,7a,8,11,11a,11 b,12,13,13a,13b-octadecahydro-1H-cyclopenta[a]chrysen-9-yl)cyclohex-3-ene-1-carboxylic acid], the pEC50 was 8.70 in experiment [1] (setting [4]), 7.92 in the experiment on gag V370A/ΔT371 virus, 8.10 in experiment [2] and 7.92 in experiment [3].
Consider `C=C(C)[C@@H]1CC[C@]2(NCCN3CCS(=O)(=O)CC3)CC[C@]3(C)[C@H](CC[C@@H]4[C@@]5(C)CC=C(C6=CC[C@@](COc7ncccc7C#N)(C(=O)O)CC6)C(C)(C)[C@@H]5CC[C@]43C)[C@@H]12` [Example 25, (S)-1-(((3-cyanopyridin-2-yl)oxy)methyl)-4-((1R,3aS,5aR,5bR,7aR,11aS,11bR,13aR,13bR)-3a-((2-(1,1-dioxidothiomorpholino)ethyl)amino)-5a,5b,8,8,11a-pentamethyl-1-(prop-1-en-2-yl)-2,3,3a,4,5,5a,5b,6,7,7a,8,11,11a,11b,12,13,13a,13b-octadecahydro-1H-cyclopenta[a]chrysen-9-yl)cyclohex-3-ene-1-carboxylic acid], for which the pEC50 is 8.70 in experiment [1] (setting [4]); 8.70 in experiment [1] (setting [5]); 8.00 with gag V370A/ΔT371 virus; 7.74 in experiment [2]; 8.00 in experiment [3]. Besides, the EC90 with gag V370A/ΔT371 virus came to 2 nM; in experiment [2] it was 41 nM; in experiment [3] it was 21 nM.
On to `C=C(C)[C@@H]1CC[C@]2(NCCN3CCS(=O)(=O)CC3)CC[C@]3(C)[C@H](CC[C@@H]4[C@@]5(C)CC=C(C6=CCC(CCOc7ncccc7C)(C(=O)O)CC6)C(C)(C)[C@@H]5CC[C@]43C)[C@@H]12` (stereo partly drawn) [Example A28, 4-((1R,3aS,5aR,5bR,7aR,11aS,11bR,13aR,13bR)-3a-((2-(1,1-dioxidothiomorpholino)ethyl)amino)-5a,5b,8,8,11a-pentamethyl-1-(prop-1-en-2-yl)-2,3,3a,4,5,5a,5b,6,7,7a,8,11,11a,11b,12,13,13a,13b-octadecahydro-1H-cyclopenta[a]chrysen-9-yl)-1-(2-((3-methylpyridin-2-yl)oxy)ethyl)cyclohex-3-ene-1-carboxylic acid], for which the pEC50 in experiment [1] (setting [4]) was more than 7.30; in the experiment on gag V370A/ΔT371 virus, 7.17; in experiment [2] it was less than 7.30; in experiment [3] it was 7.17.
With `C=C(C)[C@@H]1CC[C@]2(NCC(C)(O)C(=O)O)CC[C@]3(C)[C@H](CC[C@@H]4[C@@]5(C)CC=C(C6=CC[C@](COc7ncccc7C#N)(C(=O)O)CC6)C(C)(C)[C@@H]5CC[C@]43C)[C@@H]12` (stereo partly drawn) [Example A19, (1R)-4-((1R,3aS,5aR,5bR,7aR,11aS,11bR,13aR,13bR)-3a-((2-carboxy-2-hydroxypropyl)amino)-5a,5b,8,8,11a-pentamethyl-1-(prop-1-en-2-yl)-2,3,3a,4,5,5a,5b,6,7,7a,8,11,11a,11b,12,13,13a,13b-octadecahydro-1H-cyclopenta[a]chrysen-9-yl)-1-(((3-cyanopyridin-2-yl)oxy)methyl)cyclohex-3-enecarboxylic acid], the pEC50 in experiment [1] (setting [4]) is 8.52; in the experiment on gag V370A/ΔT371 virus it was 7.70; in experiment [2] it was less than 7.30; in experiment [3], 7.70.
As to `C=C(C)[C@@H]1CC[C@]2(NC[C@@H](O)COC)CC[C@]3(C)[C@H](CC[C@@H]4[C@@]5(C)CC=C(C6=CC[C@](COc7ncccc7C#N)(C(=O)O)CC6)C(C)(C)[C@@H]5CC[C@]43C)[C@@H]12` [Example A9, (R)-1-(((3-cyanopyridin-2-yl)oxy)methyl)-4-((1R,3aS,5aR,5bR,7aR,11aS,11bR,13aR,13bR)-3a-(((R)-2-hydroxy-3-methoxypropyl)amino)-5a,5b,8,8,11a-pentamethyl-1-(prop-1-en-2-yl)-2,3,3a,4,5,5a,5b,6,7,7a,8,11,11a,11b,12,13,13a,13b-octadecahydro-1H-cyclopentalalchrysen-9-yl)cyclohex-3-enecarboxylic acid], the pEC50 in experiment [1] (setting [4]) is 8.52; with gag V370A/ΔT371 virus it was 7.92; in experiment [2], 6.52; in experiment [3], 7.92.
In the case of `C=C(C)[C@@H]1CC[C@]2(NCCC3(O)CCS(=O)(=O)CC3)CC[C@]3(C)[C@H](CC[C@@H]4[C@@]5(C)CC=C(C6=CCC(COc7ccccn7)(C(=O)O)CC6)C(C)(C)[C@@H]5CC[C@]43C)[C@@H]12` (stereo partly drawn) [Example 33, 4-((1R,3aS,5aR,5bR,7aR,11aS,11bR,13aR,13bR)-3a-((2-(4-hydroxy-1,1-dioxidotetrahydro-2H-thiopyran-4-yl)ethyl)amino)-5a,5b,8,8,11a-pentamethyl-1-(prop-1-en-2-yl)-2,3,3a,4,5,5a,5b,6,7,7a,8,11,11a,11b,12,13,13a,13b-octadecahydro-1H-cyclopenta[a]chrysen-9-yl)-1-((pyridin-2-yloxy)methyl)cyclohex-3-ene-1-carboxylic acid], the pEC50 is 8.30 in experiment [1] (setting [4]), more than 7.30 in the experiment with gag V370A/ΔT371 virus, 7.80 in experiment [2] and more than 7.30 in experiment [3].

The values are drawn from patent publication US10421774B2 (priority 2016, dated 2019).
